Experimental findings from patent US7157453B2, “Urea substituted imidazoquinolines” (3M Innovation Properties Company, priority 1999, dated 2007) are described below.

Each structure is given as a SMILES string.

A word on the melting point: it is the temperature, or range, at which the solid turns liquid. A word on the minimal effective concentration: it is the lowest level tested that produced the effect sought. Low values mean greater potency, high ones weaker potency.

For one series, the system named is interferon (α). Briefly: Cytokine Induction in Human Cells: interferon (α) by ELISA. It counts as cell-based. To be noted: PBMC; human PBMCs, incubated 18 to 24 hours, lowest concentration found to induce interferon. The essentials:
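Healthy-donor human PBMCs (1.5–2×10^6 cells/mL final, RPMI with 10% FBS) exposed to serially diluted compound (≤1% DMSO) for 18–24 h at 37 °C, 5% CO2. Supernatant IFN-α measured by ELISA; value reported is lowest concentration inducing interferon.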

Series [1] deals with tumor necrosis factor (α). As to the kind of experiment: Cytokine Induction in Human Cells: tumor necrosis factor (α) by ELISA. It counts as cell-based. Conditions: PBMC; human PBMCs, incubated 18 to 24 hours, lowest concentration found to induce tumor necrosis factor. The essentials: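 Healthy-donor PBMCs (1.5–2×10^6 cells/mL final, RPMI with 10% FBS) incubated 18–24 h at 37 °C with compound in three- or ten-fold serial dilutions, DMSO ≤1% final. Supernatant TNF measured by ELISA; value is lowest concentration inducing TNF.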
A general note: In an ELISA, binding on a coated surface is turned into a signal by an enzyme label.

Take `CCCCCc1nc2c(N)nc3ccccc3c2n1CCCCNC(=O)Nc1ccccc1` [Example 159, N-[4(4-amino-2-pentyl-1H-imidazo[4,5-c]quinolin-1-yl)butyl]-N′-phenylurea]: the melting point lay in the range of 159 to 160.4 °C. This compound also registered a minimal effective concentration with interferon (α) of 1.11 µM. In addition, the minimal effective concentration in series [1] is 10 µM.

On to `Cc1nc2c(N)nc3c(c2n1CCCCNC(=O)N1CCOCC1)CCCC3` [Example 170, N-[4-(4-amino-2-methyl-6,7,8,9-tetrahydro-1H-imidazo[4,5-c]quinolin-1-yl)butyl]morpholine-4-carboxamide], for which the melting point lay in the range of 133.6 to 134.6 °C. Moreover, the minimal effective concentration in the series on interferon (α) was 0.12 µM. Moreover, in series [1], the minimal effective concentration worked out at 10 µM.

For `CC(C)(C)OC(=O)NCCCn1c(CCCOc2ccccc2)nc2c(N)nc3ccccc3c21` [Example 174, tert-butyl 3-[4-amino-2-(3-phenoxypropyl)-1H-imidazo[4,5-c]quinolin-1-yl]propylcarbamate], the melting point lay within 151 to 153 °C. Further, the minimal effective concentration with interferon (α) is greater than 30 µM. For the same compound, in series [1], the minimal effective concentration is greater than 30 µM.

In turn, `CC(C)(C)OC(=O)NCCCCn1cnc2c(N)nc3ccccc3c21` [Example 2] displayed a melting point of 171 to 173 °C. Further, the minimal effective concentration in the series with interferon (α) came to 0.37 µM. In series [1], the minimal effective concentration was determined as 3.33 µM.

As for `CCCCNC(=O)NCCCn1c(CCCC)nc2c(N)nc3ccccc3c21` [Example 150, N-[3-(4-amino-2-butyl-1H-imidazo[4,5-c]quinolin-1-yl)propyl]-N′-butylurea], the melting point lay within 185.5 to 186.4 °C. The minimal effective concentration in the series with interferon (α) was determined as 0.04 µM. In series [1], this compound came in with a minimal effective concentration of 0.37 µM.

The compound `CCc1nc2c(N)nc3ccccc3c2n1CCCCNC(=O)Nc1ccccc1` [Example 143, N-[4-(4-amino-2-ethyl-1H-imidazo[4,5-c]quinolin-1-yl)butyl]-N′-phenylurea] displayed a melting point of 179.7 to 181.4 °C. Further, the minimal effective concentration with interferon (α) amounted to 0.01 µM. In series [1], this compound returned a minimal effective concentration of 0.37 µM.

`CCCCc1nc2c(N)nc3ccccc3c2n1CCCCCCCCNC(=O)Nc1ccccc1` [Example 154, N-[8-(4-amino-2-butyl-1H-imidazo[4,5-c]quinolin-1-yl)octyl]-N′-phenylurea] gave a melting point of 153 to 155 °C. For the same compound, the minimal effective concentration in the series on interferon (α) stood at 0.37 µM. Besides, the minimal effective concentration in series [1] came out at 1.11 µM.

`CCCCc1nc2c(N)nc3ccccc3c2n1CCCNC(=S)NCCC` [Example 152, N-[3-(4-amino-2-butyl-1H-imidazo[4,5-c]quinolin-1-yl)propyl]-N′-propylthiourea] had a melting point of 144.5 to 145.5 °C. Further, the minimal effective concentration in the series with interferon (α) was 0.04 µM. Also, the minimal effective concentration in series [1] worked out at 0.04 µM.

`COCCc1nc2c(N)nc3ccccc3c2n1CCCNC(=O)NC1CCCCC1` [Example 158, N-{3-[4-amino-2-(2-methoxyethyl)-1H-imidazo[4,5-c]quinolin-1-yl]propyl}-N′-cyclohexylurea] yielded a melting point of 179 to 180 °C. The minimal effective concentration in the series with interferon (α) was 0.01 µM. The compound also registered a minimal effective concentration in series [1] of 1.11 µM.

In turn, `CCCCc1nc2c(N)nc3ccccc3c2n1CCCNC(=O)N1CCOCC1` [Example 151, N-[3-(4-amino-2-butyl-1H-imidazo[4,5-c]quinolin-1-yl)propyl]morpholine-4-carboxamide] had a melting point of 193.4 to 194.6 °C. Also, the minimal effective concentration with interferon (α) was found to be 0.01 µM. Moreover, the minimal effective concentration in series [1] was determined as 0.01 µM.

As for `CCCc1nc2c(N)nc3ccccc3c2n1CCCCNC(=O)Nc1ccccc1` [Example 160, N-[4-(4-amino-2-propyl-1H-imidazo[4,5-c]quinolin-1-yl)butyl]-N′-phenylurea], the melting point fell in the range of 182.8 to 184 °C. The minimal effective concentration in the series on interferon (α) came to 0.12 µM. This compound also displayed a minimal effective concentration in series [1] of 1.11 µM.

As for `CC(C)(C)OC(=O)NCCn1cnc2c(N)nc3ccccc3c21` [Example 1, Tert-Butyl N-[2-(4-Amino-1H-imidazo[4,5-c]quinolin-1-yl)ethyl]carbamate], the melting point was 215 °C. This compound also came in with a minimal effective concentration with interferon (α) of 3.33 µM. The minimal effective concentration in series [1] was found to be 30 µM.

As to `COCCc1nc2c(N)nc3ccccc3c2n1CCCNC(=O)OC(C)(C)C` [Example 148, tert-butyl 3-[4-amino-2-(2-methoxyethyl)-1H-imidazo[4,5-c]quinolin-1-yl]propylcarbamate], the melting point was in the range of 174.2 to 175.8 °C. The same compound showed a minimal effective concentration with interferon (α) of 0.04 µM. In series [1], the minimal effective concentration worked out at 0.04 µM.

Turning to `CCCCNC(=O)NCCCn1c(CCOC)nc2c(N)nc3ccccc3c21` [Example 162, N-{3-[4-amino-2-(2-methoxyethyl)-1H-imidazo[4,5-c]quinolin-1-yl]propyl}-N′-butylurea], the melting point was 159 to 160 °C. In the series on interferon (α), this compound displayed a minimal effective concentration of 0.01 µM. Further, the minimal effective concentration in series [1] was 0.04 µM.

With `Nc1nc2ccccc2c2c1nc(-c1ccccc1)n2CCCCNC(=S)Nc1cccnc1` [Example 14, N-[4-(4-Amino-2-phenyl-1H-imidazo[4,5-c]quinolin-1-yl)butyl]-N′-(3-pyridyl)thiourea], the melting point is 118 to 120 °C.

In turn, `Nc1nc2ccccc2c2c1nc(CCCOc1ccccc1)n2CCCCNC(=O)N1CCOCC1` [Example 171, N-{4-[4-amino-2-(3-phenoxypropyl)-1H-imidazo[4,5-c]quinolin-1-yl]butyl}morpholine-4-carboxamide] registered a melting point of 71.5 to 72.1 °C. In the series on interferon (α), this compound displayed a minimal effective concentration greater than 30 µM. In addition, the minimal effective concentration in series [1] was 10 µM.

Turning to `CC(C)(C)OC(=O)NCCCCn1c(-c2ccccc2)nc2c(N)nc3ccccc3c21` [Example 12, tert-Butyl N-[4-(4-Amino-2-phenyl-1H-imidazo[4,5-c]quinolin-1-1)butyl]carbamate], the melting point fell in the range of 182 to 183 °C.

For the compound `COCCc1nc2c(N)nc3ccccc3c2n1CCCNC(=S)NC1CCCCC1` [Example 157, N-{3-[4-amino-2-(2-methoxyethyl)-1H-imidazo[4,5-c]quinolin-1-yl]propyl}-N′-cyclohexylthiourea], the melting point fell in the range of 199 to 200 °C. The same compound registered a minimal effective concentration in the series with interferon (α) of 0.37 µM. The compound also registered a minimal effective concentration in series [1] of 1.11 µM.

Regarding `COCCc1nc2c(N)nc3c(c2n1CCCNC(=O)N1CCOCC1)CCCC3` [Example 168, N-{3-[4-amino-2-(2-methoxyethyl)-6,7,8,9-tetrahydro-1H-imidazo[4,5-c]quinolin-1-yl]propyl}morpholine-4-carboxamide], the melting point was in the range of 171.8 to 173.2 °C.

Turning to `Cc1nc2c(N)nc3ccccc3c2n1CCCNC(=O)N1CCOCC1` [Example 167, N-[3-(4-amino-2-methyl-1H-imidazo[4,5-c]quinolin-1-yl)propyl]morpholine-4-carboxamide], the melting point was in the range of 226 to 228 °C.

Compound `CCCNC(=S)NCCCCn1c(-c2ccccc2)nc2c(N)nc3ccccc3c21` [Example 13, N-[4-(4-Amino-2-phenyl-1H-imidazo[4,5-c]quinolin-1-yl)butyl]-N′-propylthiourea] gave a melting point of 113 to 116 °C.
